Source: PubChem BioAssay AID1845212 (Molecular Pharmacology Branch, DTP, NCI, 2023)
Where “and” joins values, the source holds several entries; their conditions need not be identical. Equal values may be shown once.

Test system: NCI-H719 tumor spheroids, viability
Assay: Anticancer human tumor NCI-H719 cell line growth inhibition;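 note: spheroids exposed to compounds for seven days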;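 for viability, T/C: percent viability relative to DMSO vehicle control as 100%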
Conditions: spheroids with HUVEC and MSC; for viability, T/C: stronger effect = lower value
In short: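 Complex tumor spheroids combined malignant cells with endothelial cells and mesenchymal stem cells. DNA-damaging drugs and DNA repair inhibitors were tested alone and in combination, at half-log dilutions down from clinical Cmax (top 10 microM if Cmax unknown), 0.25% DMSO final.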

Which results are given for `[2H]c1nc(C)nc([2H])c1-c1cc(NC[C@@H](C)c2cccc3c(C(=O)NC)ccnc23)ncn1` + Cn1nnc2c(C(N)=O)ncn2c1=O?
IC50 (curve of first compound, second compound 1 µM): > 10000 nM; IC50 (curve of first compound, second compound 3.16 µM): > 10000 nM; IC50 (curve of first compound, second compound 10 µM): > 10000 nM; IC50 (curve of first compound, second compound 31.6 µM): > 10000 nM; IC50 (curve of first compound, second compound 100 µM): > 10000 nM; viability, T/C (second compound 1 µM, first compound 0.0316 µM): 93.8%; viability, T/C (second compound 1 µM, first compound 0.1 µM): 101%; viability, T/C (second compound 1 µM, first compound 0.316 µM): 90.4%; viability, T/C (second compound 1 µM, first compound 1 µM): 99.2%; viability, T/C (second compound 1 µM, first compound 3.16 µM): 90.6%; viability, T/C (second compound 1 µM, first compound 10 µM): 87.8%; viability, T/C (second compound 3.16 µM, first compound 0.0316 µM): 104%; viability, T/C (second compound 3.16 µM, first compound 0.1 µM): 90.1%; viability, T/C (second compound 3.16 µM, first compound 0.316 µM): 95.3%; viability, T/C (second compound 3.16 µM, first compound 1 µM): 94.4%; viability, T/C (second compound 3.16 µM, first compound 3.16 µM): 98.9%; viability, T/C (second compound 3.16 µM, first compound 10 µM): 98.7%; viability, T/C (second compound 10 µM, first compound 0.0316 µM): 103%; viability, T/C (second compound 10 µM, first compound 0.1 µM): 97%; viability, T/C (second compound 10 µM, first compound 0.316 µM): 90.4%; viability, T/C (second compound 10 µM, first compound 1 µM): 96.8%; viability, T/C (second compound 10 µM, first compound 3.16 µM): 89.8%; viability, T/C (second compound 10 µM, first compound 10 µM): 94.2%; viability, T/C (second compound 31.6 µM, first compound 0.0316 µM): 101%; viability, T/C (second compound 31.6 µM, first compound 0.1 µM): 105%; viability, T/C (second compound 31.6 µM, first compound 0.316 µM): 101%; viability, T/C (second compound 31.6 µM, first compound 1 µM): 104%; viability, T/C (second compound 31.6 µM, first compound 3.16 µM): 109%; viability, T/C (second compound 31.6 µM, first compound 10 µM): 82.4%; viability, T/C (second compound 100 µM, first compound 0.0316 µM): 87.1%; viability, T/C (second compound 100 µM, first compound 0.1 µM): 84.2%; viability, T/C (second compound 100 µM, first compound 0.316 µM): 68.6%; viability, T/C (second compound 100 µM, first compound 1 µM): 70.3%; viability, T/C (second compound 100 µM, first compound 3.16 µM): 68.2%; viability, T/C (second compound 100 µM, first compound 10 µM): 62.8%

Which results are given for `CC1COCCN1c1cc(-c2ccnn2C)c2ccnc(-c3ccn[nH]3)c2n1` (configuration not stated)?
viability, T/C (compound 0.0316 µM): 59.9% and 73.9% and 62.1%; viability, T/C (compound 0.1 µM): 60.1% and 43.6% and 50.1%; viability, T/C (compound 0.316 µM): 23.8% and 26.8% and 29.1%; viability, T/C (compound 1 µM): 11.2% and 14.3% and 10.5%; viability, T/C (compound 3.16 µM): 11.6% and 8.2% and 8.17%; viability, T/C (compound 10 µM): 13.3% and 9.71% and 10.8%; IC50 (curve of compound): 137 nM and 80.4 nM and 106 nM
